Where two headings read alike, the source gives them in different places.
How the values were obtained:
Experiment in all cases: microbe, parasite or virus in culture
Conditions in all cases: Hepatitis C virus
[1] = test system: stable HCV 1a RLuc replicon cells (genotype 1a H77 replicon); assay type: cell-based
Protocol: (§1) Evaluation of Cell-Based Anti-HCV Activity:
(§2) Antiviral potency (EC50) was determined using a Renilla luciferase (RLuc)-based HCV replicon reporter assay. […] To perform the assay for genotype 2a (with M31 present in NS5A) or 2b, NS5A chimeric genotype 2a JFH-1 replicons that encodes a RLuc-Neo reporter and either genotype 2a J6 strain NS5A gene or genotype 2b MD2b-1 strain NS5A gene (both with M31 present) respectively, were either transiently transfected (t) into Huh-Lunet cells or were established as stably replicating replicon cells (s) is provided. Either cells were dispensed into 384-well plates for EC50 assays. To perform the assay for genotype 3 and 4, NS5A chimeric genotype 1b Con1 replicons that encodes a Pi-RLuc reporter and either genotype 3a S52 strain NS5A gene or genotype 4a ED43 strain NS5A gene respectively, were transiently transfected (t) into Huh-Lunet cells, which were subsequently dispensed into 384-well plates. Compounds were dissolved in DMSO at a concentration of 10 mM and diluted in DMSO either manually or using an automated pipeting instrument. Serially 3-fold diluted compounds were either manually mixed with cell culture media and added to the seeded cells or directly added to the cells using an automated instrument. […] 72 hours later, cells were lysed and Renilla luciferase activity quantified as recommended by the manufacturer (Promega-Madison, Wis.). Non-linear regression was performed to calculate EC50 values.

[2] = test system: stable HCV 2a JFH-1 Rluc replicon cells (L31 present in NS5A); assay type: cell-based
[3] = test system: NS5A chimeric genotype 1b Con1 replicon with genotype 3a S52 strain NS5A gene; assay type: cell-based, HCV
Protocol: as §1, §2

[4] = test system: NS5A chimeric genotype 2a JFH-1 replicon with genotype 2a J6 strain NS5A gene (M31 present); assay type: cell-based, HCV
Protocol: as §1, §2

[5] = test system: NS5A chimeric genotype 2a JFH-1 replicon with genotype 2b MD2b-1 strain NS5A gene (M31 present); assay type: cell-based, HCV
Protocol: as §1, §2

[6] = test system: NS5A chimeric genotype 1b Con1 replicon with genotype 4a ED43 strain NS5A gene; assay type: cell-based, HCV
[7] = test system: 1a Pi-Rluc replicon with Q30R in genotype 1a NS5A; assay type: cell-based, HCV
Protocol: as §2
To determine the antiviral potency (EC50) against resistance mutants, resistance mutations, including M28T, Q30R, Q30H, L31M, and Y93C in genotype 1a NS5A and Y93H in genotype 1b NS5A, were introduced individually into either 1a Pi-Rluc or 1b Pi-Rluc replicons by site directed mutagenesis. Replicon RNA of each resistant mutant was transiently transfected into Huh-7-derived cured-51 cells and antiviral potency was determined on these transfected cells as described above.

| Structure (SMILES) | EC50 ([1]; read-out: 1a) [nM] | EC50 ([1]; read-out: 1a (nM)) [nM] | EC50 ([2]; read-out: 2a JFH) [nM] | EC50 ([2]; read-out: 2a JFH (nM)) [nM] | EC50 ([3]; read-out: 3a) [nM] | EC50 ([3]; read-out: 3a (nM)) [nM] | EC50 ([4]; read-out: 2a J6) [nM] | EC50 ([4]; read-out: 2a J6 (s) (nM)) [nM] | EC50 ([5]; read-out: 2b) [nM] | EC50 ([5]; read-out: 2b (s) (nM)) [nM] | EC50 ([6]; read-out: 4a) [nM] | EC50 ([6]; read-out: 4a (s) (nM)) [nM] | EC50 ([6]; read-out: 4a (t) (nM)) [nM] | EC50 ([4]; read-out: 2a Jb (t) (nM)) [nM] | EC50 ([5]; read-out: 2b (t) (nM)) [nM] | EC50 ([7]; read-out: 1a Q30R) [nM] | EC50 ([7]; read-out: 1a Q30R (nM)) [nM] |
| --- | --- | --- | --- | --- | --- | --- | --- | --- | --- | --- | --- | --- | --- | --- | --- | --- | --- |
| COC(=O)N[C@H](C(=O)N1CCC[C@H]1c1ncc(-c2ccc3c(c2)COc2cc4c(ccc5nc([C@@H]6C[C@H]7C[C@H]7N6C(=O)[C@@H](NC(=O)OC)C(C)C)[nH]c54)cc2-3)[nH]1)C(C)C [Compound 518] | < 1 | 0.005 | < 1 | 0.006 | < 1 | 0.005 | 1 to 4.99 | 2.49 | < 1 | 0.643 | < 1 | 0.011 | 0.004 |  |  |  |  |
| COC[C@H]1C[C@@H](c2ncc(-c3ccc4c(c3)COc3cc5c(ccc6nc([C@@H]7CCCN7C(=O)[C@H](NC(=O)OC)c7ccccc7)[nH]c65)cc3-4)[nH]2)N(C(=O)[C@@H](NC(=O)OC)[C@@H](C)OC)C1 [Compound 626] | < 1 | 0.021 | < 1 | 0.009 | < 1 | 0.027 | < 1 |  | < 1 |  |  |  |  | 0.021 | 0.021 | < 1 | 0.041 |
| COC(=O)N[C@H](C(=O)N1[C@@H](C)CC[C@H]1c1ncc(-c2ccc3c(c2)COc2cc4c(ccc5nc([C@@H]6CCCN6C(=O)[C@H](NC(=O)OC)c6ccccc6)[nH]c54)cc2-3)[nH]1)C(C)C [Example NQ, Methyl {(2S)-1-[(2S,5S)-2-(5-{2-[(2S)-1-{(2R)-2-[(methoxycarbonyl)amino]-2-phenylacetyl}pyrrolidin-2-yl]-1,11-dihydroisochromeno[4′,3′:6,7]naphtho[1,2-d]imidazol-9-yl}-1H-imidazol-2-yl)-5-methylpyrrolidin-1-yl]-3-methyl-1-oxobutan-2-yl}carbamate] | < 1 | 0.017 | < 1 | 0.006 | < 1 | 0.013 | < 1 |  | < 1 | 0.012 |  |  |  | 0.064 | 0.013 | < 1 | 0.039 |
| CC[C@H](C)[C@H](NC(=O)OC)C(=O)N1C[C@@H](COC)C[C@H]1c1ncc(-c2ccc3c(c2)COc2cc4c(ccc5nc([C@@H]6C[C@H](COC)CN6C(=O)[C@@H](NC(=O)OC)[C@@H](C)CC)[nH]c54)cc2-3)[nH]1 [Example OJ] | < 1 | 0.018 | < 1 | 0.013 | < 1 | 0.259 | < 1 | 0.502 | < 1 | 0.813 | < 1 | 0.017 | 0.026 |  |  |  |  |
| CC[C@H](C)[C@H](NC(=O)OC)C(=O)N1C[C@@H](COC)C[C@H]1c1nc2ccc3cc4c(cc3c2[nH]1)OCc1cc(-c2cnc([C@@H]3CC[C@H](C)N3C(=O)[C@@H](NC(=O)OC)C(C)C)[nH]2)ccc1-4 [Example ON, methyl {(2S)-1-[(2S,4S)-2-(5-{2-[(2S,5S)-1-{(2S,3S)-2-[(methoxycarbonyl)amino]-3-methylpentanoyl}-4-(methoxymethyl)-2-yl]-1,11-dihydroisochromeno[4′,3′:6,7]naphtho[1,2-d]imidazol-9-yl}-1H-imidazol-2-yl)-5-methylpyrrolidin-1-yl]-3-methyl-1-oxobutan-2-yl}carbamate] | < 1 | 0.005 | < 1 | 0.004 |  |  | < 1 |  |  |  |  |  |  | 0.068 | 0.086 | < 1 |  |
| COC(=O)N[C@H](C(=O)N1CCCC1c1ncc(-c2ccc3c(c2)COc2cc4c(ccc5nc([C@@H]6C[C@@H]7CCC[C@@H]7N6C(=O)[C@@H](NC(=O)OC)C(C)C)[nH]c54)cc2-3)[nH]1)C(C)C (stereo partly drawn) [Example PO, methyl {(2S)-1-[2-(5-{2-[(2S,3aS,6aS)-1-{(2S)-2-[(methoxycarbonyl)amino]-3-methylbutanoyl}octahydrocyclopenta[b]pyrrol-2-yl]-1,11-dihydroisochromeno[4′,3′:6,7]naphtho[1,2-d]imidazol-9-yl}-1H-imidazol-2-yl)pyrrolidin-1-yl]-3-methyl-1-oxobutan-2-yl}carbamate] | < 1 | 0.013 | < 1 | 0.011 | < 1 | 0.012 | 1 to 4.99 | 3.13 | < 1 | 0.47 | < 1 | 0.013 | 0.013 |  |  |  |  |

From US8575135B2 (Gilead Sciences, Inc., priority 2011, dated 2013)
